Data published in ChEMBL document CHEMBL1136575, “Pyridazinones as selective cyclooxygenase-2 inhibitors” (Bioorg Med Chem Lett, 2003).

How the values were obtained:
[1] = biological target: Prostaglandin G/H synthase 1 (Homo sapiens, UniProt P23219); assay: In vitro inhibitory activity against sensitive U-937 microsomal prostaglandin G/H synthase 1
[2] = Cmax value was determined after peroral administration of 20 mg/kg in rat; type: ADME, organism-based; design: dose 20 mg/kg, route oral; conditions: in vivo, po
[3] = system: Rattus norvegicus; assay: Effective dose of the Compound was determined in vivo by using rat paw edema assay; type: functional
[4] = biological target: T1, Prostaglandin G/H synthase 2 (Homo sapiens, UniProt P35354); assay: In vitro inhibitory activity against prostaglandin G/H synthase 2 stably transfected in Human whole blood (HWB) cell; type: tissue-based
T1 sequence (P35354 whole entry): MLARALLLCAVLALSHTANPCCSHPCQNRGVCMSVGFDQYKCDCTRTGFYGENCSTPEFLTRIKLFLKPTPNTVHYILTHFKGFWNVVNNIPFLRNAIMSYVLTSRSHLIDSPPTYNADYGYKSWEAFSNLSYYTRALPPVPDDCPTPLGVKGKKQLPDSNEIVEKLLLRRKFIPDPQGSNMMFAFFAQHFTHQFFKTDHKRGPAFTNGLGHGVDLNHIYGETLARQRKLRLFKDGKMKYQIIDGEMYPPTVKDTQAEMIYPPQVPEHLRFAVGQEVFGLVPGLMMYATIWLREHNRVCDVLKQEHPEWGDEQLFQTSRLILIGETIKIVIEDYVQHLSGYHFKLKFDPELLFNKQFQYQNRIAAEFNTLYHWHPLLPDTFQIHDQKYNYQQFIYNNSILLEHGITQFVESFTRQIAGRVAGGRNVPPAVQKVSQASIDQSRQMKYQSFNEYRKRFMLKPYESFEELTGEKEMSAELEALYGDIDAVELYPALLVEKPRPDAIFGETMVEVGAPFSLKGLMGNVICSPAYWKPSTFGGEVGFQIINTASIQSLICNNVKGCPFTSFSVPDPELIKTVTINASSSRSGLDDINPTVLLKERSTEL

[5] = biological target: T1, Prostaglandin G/H synthase 2; assay: In vitro inhibitory activity against prostaglandin G/H synthase 2 stably transfected in Chinese hamster ovary (CHO) cells; type: cell-based
[6] = system: Rattus norvegicus; assay: Effective dose of the Compound was determined in vivo by using rat pyresis assay; type: functional
[7] = system: Rattus norvegicus; assay: Percent inhibition was determined in vivo by using rat paw edema assay at 10 mg/kg; type: functional

Sequence of Prostaglandin G/H synthase 1 (P23219 whole entry): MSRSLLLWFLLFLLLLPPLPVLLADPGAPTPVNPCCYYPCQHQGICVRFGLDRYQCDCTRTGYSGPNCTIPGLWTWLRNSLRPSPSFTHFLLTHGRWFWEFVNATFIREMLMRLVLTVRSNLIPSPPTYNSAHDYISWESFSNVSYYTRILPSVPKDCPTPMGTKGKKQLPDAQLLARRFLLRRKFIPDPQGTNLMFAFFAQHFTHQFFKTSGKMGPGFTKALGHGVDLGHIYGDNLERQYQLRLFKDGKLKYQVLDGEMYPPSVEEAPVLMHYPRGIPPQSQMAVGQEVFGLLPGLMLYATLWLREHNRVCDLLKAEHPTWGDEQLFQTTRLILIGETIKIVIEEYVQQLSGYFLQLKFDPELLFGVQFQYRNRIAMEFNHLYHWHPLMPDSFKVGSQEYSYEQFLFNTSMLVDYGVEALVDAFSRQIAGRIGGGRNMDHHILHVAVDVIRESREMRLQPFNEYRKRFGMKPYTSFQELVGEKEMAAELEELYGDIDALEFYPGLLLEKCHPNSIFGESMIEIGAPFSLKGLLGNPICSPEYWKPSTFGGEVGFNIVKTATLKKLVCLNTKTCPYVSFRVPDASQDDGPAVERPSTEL

SMILES	IC50 [1] [µM]	Cmax [2] [µM]	ED50 [3] [mg/kg]	IC50 [4] [µM]	IC50 [5] [µM]	ED50 [6] [mg/kg]	inhibition in vivo at 10 mg/kg [7] [%]
CS(=O)(=O)c1ccc(-c2cnn(CC3CCCCC3)c(=O)c2-c2ccc(F)cc2)cc1	1						
CC(C)=CCn1ncc(-c2ccc(S(C)(=O)=O)cc2)c(-c2ccc(F)cc2)c1=O	3						
CS(=O)(=O)c1ccc(-c2cnn(CC3CC3)c(=O)c2-c2ccc(F)cc2)cc1	> 10	8.5	10				
CS(=O)(=O)c1ccc(-c2cnn(Cc3cccs3)c(=O)c2-c2ccc(F)cc2)cc1	1						
CS(=O)(=O)c1ccc(-c2cnnc(O)c2-c2ccccc2)cc1	> 10			> 33	> 5		
CS(=O)(=O)c1ccc(-c2cnn(Cc3ccccc3)c(=O)c2-c2ccccc2)cc1	10	1					
Cc1ccc(-c2c(-c3ccc(S(C)(=O)=O)cc3)cnn(Cc3ccccc3)c2=O)cn1	> 10	4.2	> 10				
Cc1ccc(-c2c(-c3ccc(S(C)(=O)=O)cc3)cnn(Cc3ccccc3)c2=O)cc1	> 10	2.7	2.2		0.02	> 10	
CC(C)(C)n1ncc(-c2ccc(S(C)(=O)=O)cc2)c(-c2ccccc2)c1=O	> 10			> 33	> 5		
C[C@H]1C(Cn2ncc(-c3ccc(S(C)(=O)=O)cc3)c(-c3ccc(F)cc3)c2=O)[C@@H]1C (mixture of isomers)	3			0.7	0.05		
CC(C)Oc1c(-c2ccc(S(C)(=O)=O)cc2)cnn(Cc2ccccc2)c1=O	> 10	2.8	< 0.3			< 0.3	
CS(=O)(=O)c1ccc(-c2cnn(Cc3ccccc3)c(=O)c2Oc2ccc(F)cc2)cc1	1		> 10				
C[C@H]1C[C@@H]1Cn1ncc(-c2ccc(S(C)(=O)=O)cc2)c(-c2ccc(F)cc2)c1=O	3	16	0.7	0.3	0.06	1.1	
CS(=O)(=O)c1ccc(-c2cnn(Cc3nccs3)c(=O)c2-c2ccc(F)cc2)cc1	10			5.9	0.6		
CS(=O)(=O)c1ccc(-c2cnn(C3CC3)c(=O)c2-c2ccc(F)cc2)cc1	10						
CS(=O)(=O)c1ccc(-c2cnn(Cc3cccnc3)c(=O)c2-c2ccccc2)cc1	10			7.1	1.3		
C[C@@H]1C[C@H]1Cn1ncc(-c2ccc(S(C)(=O)=O)cc2)c(-c2ccc(F)cc2)c1=O	10	4.8		1.7	0.06		40
CS(=O)(=O)c1ccc(-c2cnn(-c3ccccc3)c(=O)c2-c2ccccc2)cc1	> 10						
C[C@H]1C[C@H]1Cn1ncc(-c2ccc(S(C)(=O)=O)cc2)c(-c2ccc(F)cc2)c1=O (racemic)	10			2.4	0.05		
CC1(C)CC1Cn1ncc(-c2ccc(S(C)(=O)=O)cc2)c(-c2ccc(F)cc2)c1=O (racemic)	3			0.7	0.03		
Cn1ncc(-c2ccc(S(C)(=O)=O)cc2)c(-c2ccccc2)c1=O					0.3		
CS(=O)(=O)c1ccc(-c2cnn(Cc3ccccc3)c(=O)c2Oc2ccc(Cl)cn2)cc1	10						
CS(=O)(=O)c1ccc(-c2cnn(Cc3ccccc3)c(=O)c2OCC2CC2)cc1	10	0.8	> 10	0.36	0.003		
CC1(Cn2ncc(-c3ccc(S(C)(=O)=O)cc3)c(-c3ccc(F)cc3)c2=O)CC1	3			0.7	0.2		
CS(=O)(=O)c1ccc(-c2cnn(Cc3ccccc3)c(=O)c2Sc2ccccc2)cc1	10			5.9	0.37		
CS(=O)(=O)c1ccc(-c2cnn(CCC3CC3)c(=O)c2-c2ccc(F)cc2)cc1	> 10			2.9	0.2		
CC(C1CC1)n1ncc(-c2ccc(S(C)(=O)=O)cc2)c(-c2ccc(F)cc2)c1=O (racemic)	10	13	1.8	0.7	0.2	> 10	
